Reference: patent US4087540A, “Octahydro-N-[(trichloromethyl)thio]-naphthalenedicarboximides” (Sterling Drug Inc., priority 1977, dated 1978)

What was measured:
[1] = test system: fungus; assay: fungicidal activity (general); conditions: for fungicidal activity: in words
Description: (§1) In order to find a fungicide with high solubility in petroleum hydrocarbons, numerous N-trichloromethylthio compounds have been synthesized and tested for activity and solubility. […] Rather, activity is associated with certain structural features.

[2] = B. A. Richardson; cited from earlier work
[3] = test system: Aspergillus niger; assay: minimum inhibitory concentration against Aspergillus niger; type: cell-based; conditions: microorganism 3, Aspergillus niger
Description: (§2) These properties appear to be associated with the octahydronaphthalene structure of the compounds. Thus when the anhydride VIII (Z=O) was converted to the corresponding N-[(trichloromethyl)thio]-imide (VIII, Z=N--S--CCl3) the surprising observation was made that the cyclized compound IC has about five times the fungicidal activity, and against staphylococcus aureus about 100 times the activity, of the uncyclized compound VIII (Z=N--S--CCl3) and that the latter compound had only one-fifth the solubility of compound IC. The solubility data and minimum inhibitory concentration against several microorganisms for these two compounds as well as the known fungicide Captan are presented in the following table.

[4] = test system: Candida albicans; assay: minimum inhibitory concentration against Candida albicans; type: cell-based; conditions: microorganism 7, Candida albicans
Description: as §2

[5] = test system: fungus; conditions: cited from earlier work; for properties as fungicidal additives to paints: Fette, Seifen, Anstrichmittel 1966
[6] = test system: Penicillium glaucum; assay: minimum inhibitory concentration against Penicillium glaucum; type: cell-based; conditions: microorganism 2, Penicillium glaucum
Description: as §2

[7] = test system: Pullularia pullulans; assay: minimum inhibitory concentration against Pullularia pullulans; type: cell-based; conditions: microorganism 5, Pullularia pullulans
Description: as §2

[8] = test system: Staphylococcus aureus; assay: minimum inhibitory concentration against Staphylococcus aureus; type: cell-based; conditions: for Minimum Inhibitory Concentration (%): microorganism 1, Staphylococcus aureus
Description: as §2

[9] = type: physicochemical; conditions: in words
Description: as §1

[10] = test system: Sclerophoma pityophila; assay: minimum inhibitory concentration against Sclerophoma pityophila; type: cell-based; conditions: microorganism 4, Sclerophoma pityophila
Description: as §2

[11] = test system: Saccharomyces cerevisiac; assay: minimum inhibitory concentration against Saccharomyces cerevisiac; type: cell-based; conditions: microorganism 6, Saccharomyces cerevisiac
Description: as §2

[12] = test system: blue discoloration; conditions: E. Hoffman and A. Saracz; cited from earlier work
[13] = cited from earlier work
[14] = solubility in mineral spirits; type: physicochemical; conditions: VIII (Z=N--S--CCl3) vs IC
Description: as §2

## O=C1C2C3c4ccccc4C(c4ccccc43)C2C(=O)N1SC(Cl)(Cl)Cl (centres unmarked)
[1]
  fungicidal activity: inactive

## CC12CCC(C(=O)N(SC(Cl)(Cl)Cl)C1=O)C2(C)C (centres unmarked)
[1]
  fungicidal activity: inactive

## CCCCCCCCCCCCCCCCC1CC(=O)N(SC(Cl)(Cl)Cl)C1=O (centres unmarked)
[1]
  fungicidal activity: inactive

## O=C1Cc2ccccc2C(=O)N1SC(Cl)(Cl)Cl
[1]
  fungicidal activity: inactive

## O=C1C2CC=CCC2C(=O)N1SC(Cl)(Cl)Cl (centres unmarked) [Captan]
[2]
  solubility in paints: low solubility
[3]
  Minimum Inhibitory Concentration (%): 0.05%
[4]
  Minimum Inhibitory Concentration (%): 0.01%
[5]; owing to its low solubility in paints, B. A. Richardson
  fungicidal effectiveness in paints: practically ineffective
[6]
  Minimum Inhibitory Concentration (%): 0.01%
[7]
  Minimum Inhibitory Concentration (%): 0.005%
[8]
  Minimum Inhibitory Concentration (%): 0.05%

## CC1=C2CCC(C)CC2C2C(=O)N(SC(Cl)(Cl)Cl)C(=O)C2C1 (centres unmarked) [IA, 1,2,3,5,6,7,8,8a-octahydro-4,7-dimethyl-N-[(trichloromethyl)-thio]-1,2-naphthalenedicarboximide]
[9]
  solubility in petroleum hydrocarbons: good solubility in petroleum hydrocarbons
[1]
  fungicidal activity: excellent fungicidal activity

## CC1(C)C2CC3C(=CCC4C(=O)N(SC(Cl)(Cl)Cl)C(=O)C43)C1C2 (centres unmarked) [IB, 1,2,3,4,4a,5,6,7-octahydro-2,2-dimethyl-N-[(trichloromethyl)thio]-1,3-methanonaphthalene-5,6-dicarboximide]
[9]
  solubility in petroleum hydrocarbons: good solubility in petroleum hydrocarbons
[1]
  fungicidal activity: excellent fungicidal activity

## CC1(C)CCCC2=C1CC1C(=O)N(SC(Cl)(Cl)Cl)C(=O)C1C2 (centres unmarked) [IC, 1,2,3,4,5,6,7,8-octahydro-5,5-dimethyl-N-[(trichloromethyl)thio]-2,3-naphthalenedicarboximide]
[3]
  Minimum Inhibitory Concentration (%): 0.01%
[9]
  solubility in petroleum hydrocarbons: good solubility in petroleum hydrocarbons
[1]; IC vs VIII
  fungicidal activity relative to uncyclized compound VIII (Z=N--S--CCl3): about five
[1]
  fungicidal activity: excellent fungicidal activity
[4]
  Minimum Inhibitory Concentration (%): 0.001%
[10]
  Minimum Inhibitory Concentration (%): 0.001%
[11]
  Minimum Inhibitory Concentration (%): 0.001%
[6]
  Minimum Inhibitory Concentration (%): 0.001%
[7]
  Minimum Inhibitory Concentration (%): 0.001%
[8]; IC vs VIII
  activity against staphylococcus aureus relative to uncyclized compound VIII (Z=N--S--CCl3): about 100 times
[8]
  Minimum Inhibitory Concentration (%): 0.01%

## O=C1c2ccccc2C(=O)N1SC(Cl)(Cl)Cl [III]
[12]
  sufficiency of 1% to prevent blue discoloration: insufficient to prevent blue discoloration

## O=C1C2CCCCC2C(=O)N1SC(Cl)(Cl)Cl (centres unmarked) [IV]
[13]
  solubility in petroleum ether: 0.3%

## CC(C)=CCCC1=CCC2C(=O)N(SC(Cl)(Cl)Cl)C(=O)C2C1 (centres unmarked) [VIII]
[3]
  Minimum Inhibitory Concentration (%): 0.01%
[4]
  Minimum Inhibitory Concentration (%): 0.01%
[10]
  Minimum Inhibitory Concentration (%): 0.005%
[11]
  Minimum Inhibitory Concentration (%): 0.005%
[14]
  solubility relative to compound IC: one-fifth
[6]
  Minimum Inhibitory Concentration (%): 0.005%
[7]
  Minimum Inhibitory Concentration (%): 0.005%
[8]
  Minimum Inhibitory Concentration (%): 1%

## CN(C)S(=O)(=O)N(SC(F)(Cl)Cl)c1ccccc1 [VI]
[5]
  properties as fungicidal additives to paints: useful properties

## O=C1c2ccccc2C(=O)N1SC(F)(Cl)Cl [V]
[5]
  properties as fungicidal additives to paints: useful properties
